Source: patent US9119884B2, “LLP2A-bisphosphonate conjugates for osteoporosis treatment” (The Regents of the University of California, priority 2010, dated 2015)
“Also recorded” adds a separate entry of the source.

How the values were obtained:
[1] = system: MSC; experiment: MSC osteoblast maturation, function, migration and lineage potentials; format: cell-based
[2] = system: 10-week-old ovariectomized (OVX) mice; experiment: Ovariectomized (OVX) mouse model; format: in vivo
Text: FIG. 21 depicts histomorphometric analyses of the 5th lumbar vertebral bodies after LLP2A-Ale treatment of 10-week-old ovariectomized (OVX) mice, showing increases in osteoblast numbers, activities and bone formation rate/bone surface (BFR/BS) post-treatment. Analyses included trabecular bone area (%), osteoblast surface (Ob/BS), mineralizing surface (MS/BS) activities and BFR/BS (P<0.05).
Representative fluorescent images from the trabecular bone at the 5th LVB (Top panel: white arrowheads illustrate osteoblasts; Bottom panel: yellow arrows illustrate double labeled trabecular bone surfaces).
FIG. 23 depicts histomorphometry analyses of the right mid-femurs included bone formation at the endosteal (Ec) or periosteal (Ps.) bone surfaces, and cortical bone thickness of 10-week-old ovariectomized (OVX) mice. […] Three-point bending was performed on left femurs to obtain maximum stress of the femurs.
Short yellow arrows illustrated double labeled endocortical bone surfaces. (a, p<0.05 versus Sham; b, P<0.05 vs. OVX+PBS, c, P<0.05 vs. OVX+LLP2A; d, P<0.05 vs. OVX+Ale. Data are represented as Mean±SD).

[3] = system: C57BL/6 mice; experiment: Guiding GFP-labeled mouse MSCs to bone; format: in vivo; conditions: for osteocalcin levels: 0.9 nmol/mouse I.P. one hour after GFP-MSC I.V.
Method: LLP2A-Ale or LLP2A-Ale (1) were dissolved in 0.9% normal saline and injected I.P. to the mice one hour after MSC at a final solution of 0.9 nmol/mouse. Mice were sacrificed either at 3 days or 3 weeks. Osteocalcin, a bone formation marker, was measured at both 3 days and 3 weeks post-treatments. The lumbar vertebral bodies from the 3-day treatment groups were frozen and sectioned with cryostat. The sections were then stained with anti-GFP antibody. The transplanted MSCs were stained in brown.

[4] = system: bone marrow cells undergoing osteogenic differentiation; experiment: Rainbow bead cell-binding assay; format: cell-based, mouse; conditions: cells cultured in osteogenic medium for 7 days, incubated with rainbow beads
Method: Mouse MSCs were purchased from Invitrogen (Cat#S1502-100), cultured in osteogenic medium for 7 days and incubated with rainbow beads for one hour. […] Original magnification 10× on the right and 20× on the left of the top panel.
A new color-encoding method that facilitates high-throughput screening of OBOC combinatorial libraries was developed. This method differs from the traditional methods used to monitor integrin expressions in the MSCs, i.e., the use of antibody-based fluorescence-activated cell sorting (FACS) or immunoblotting. In the present method, polymer beads displaying chemical compounds or families of compounds were stained with oil-based organic dyes that are used as coding tags. […] These rainbow beads were prepared in a multiplex manner such that each ligand reacted to one or a series of integrins that were coded one color, See FIG. 7 (Luo, J., et al., J Comb Chem, 2008, 10(4): p. 599-604). This rainbow bead technique was then applied to determine the integrin profile on the cell surfaces.
In FIG. 7, bone marrow cells were cultured in osteogenic medium for 7 days and incubated with rainbow beads. The purple beads that coded with LLP2A, the ligand with high affinity and specificity against α4β1, were covered with layers of cells identified by green arrows. […]

[5] = system: 129SvJ mice; format: in vivo, mouse
[6] = system: C57BL/6 mice; experiment: Age-related trabecular bone loss after peak bone acquisition; format: in vivo, mouse
Text: FIGS. 18A and B show LLP2A-Ale increases bone formation parameters at the trabecular DF (P<0.05) in C57BL/6 mice.

Compound: Cc1ccccc1NC(=O)Nc1ccc(CC(=O)N[C@@H](CCCCNC(=O)/C=C/c2cccnc2)C(=O)N[C@@H](CCCC(=O)O)C(=O)NC2(C(=O)NCCOCCOCCNC(=O)CCC(=O)NCCOCCOCCNC(=O)CCC(=O)N[C@@H](CCCCNC(=O)[C@H](N)CSC3CC(=O)N(CC4CCC(C(=O)NCCCC(O)(P(=O)(O)O)P(=O)(O)O)CC4)C3=O)C(N)=O)CCCCC2)cc1 (some centres unmarked) [LLP2A-Ale, LLP2A-Alendronate]
- MSC chondrogenic or adipogenic potentials [1]: without affecting
- MSC osteoblast maturation, function and migration [1]: increases
- osteoblast numbers, activities and bone formation rate/bone surface (BFR/BS) ([2]; 5th lumbar vertebral bodies): increases
- maximum stress ([2]; femur three-point bending, single IV injection of conjugate or four weeks of PTH): not significantly altered
- endocortical bone formation ([2]; mid-femur, vs OVX): increases
- cortical bone thickness ([2]; mid-femur, single IV injection of conjugate or four weeks of PTH): not significantly altered
- location of transplanted MSCs (anti-GFP staining) ([3]; lumbar vertebral bodies, three days): observed within bone marrow and adjacent to the trabecular bone surfaces
- osteocalcin levels ([3]; three days): significantly increased
- osteocalcin levels ([3]; three weeks): significantly increased
- cell binding to ligand-coded rainbow beads (affinity) [4]: high affinity
- dose-response at the cortical bone compartment ([5]; 10 ng vs 250 ng/mouse): no dose-responses
- mineral apposition rate ([5]; distal femur metaphysis): significant increases
- osteoblast surface ([5]; distal femur metaphysis): significant increases; also recorded: increased
- surface-based bone formation rate ([5]; distal femur metaphysis): significant increases
- trabecular thickness ([5]; distal femur microCT, four weeks, two dose levels, vs PBS): increased
- increase in cancellous bone mass from baseline ([5]; distal femur microCT, four weeks, LLP2A-Ale at higher dose level (250 ng)): ~20%
- bridges between adjacent trabeculae ([5]; mouse, in vivo): formed bridges between adjacent trabeculae
- early osteoblast maturation (P1NP levels) ([5]; serum): did not change
- osteoblast function (osteocalcin) ([5]; serum): increased
- cancellous bone mass ([5]; through increasing the thickness of the trabeculae): increases
- proliferating cell populations (BrdU) ([5]; two days after i.v. injection, lumbar vertebral sections): increased these proliferating cell populations adjacent to bone surface; also recorded: increases
- cancellous bone formation ([5]; young normal mice): increases
- cortical bone formation ([5]; young normal mice): increases
- bone formation parameters at the trabecular DF ([6]; P<0.05): increases
- age-related trabecular bone (loss) after peak bone acquisition ([6]; mouse, in vivo): prevents
- bone formation parameters at trabecular bone surfaces in the lumbar vertebral bodies (LVB) ([6]; mouse, in vivo): increases
